Patent US20090004171A1, “COMPOUND PROFILING METHOD” (CYTOPATHFINDER, INC., priority 2007, published 2009)

Assays:
SK-BR-3 = SK-BR-3 breast cancer cell; stated as known; cited from earlier work
T-47D cell = conditions: T-47D human derived breast cancer cell, compared with SK-BR-3; cited from earlier work
MCF7 = MCF7 breast cancer cells; cited from earlier work
SHSY5Y cell = assay: Exposure of SHSY5Y neuroblastoma cells to differentiation stimulants (neuron projection extension, marker enzyme expression); format: cell-based; conditions: human neuroblastoma
Excerpt: The functions of (1) and (2) are different, but share the same properties in terms of extension of neuron projection. Therefore, cellular components necessary for these two intracellular alteration were specified experimentally by means of RNA interference method. As such, it was obtained that the component collection (3) necessary for the alteration from SHSY5Y to (1) are {JAK1, JAK3, ROR, and RET}. On the other hand, the component collection (4) necessary for the alteration from SHSY5Y cells to (2), are {NTRK1, EPHB2, INSR, RDGFRA, ROR and RET}. When comparing and calculation of intersection is done for (3) and (4), the intersection (5) was obtained to read {ROR and RET}. Next, the collection (6) {JAK1 and JAK3} by subtraction of (3)−(5) and the collection (5) were analyzed in terms of an intermolecular interaction, and the existence of a pathway of a molecular signals from (6) to (5) (FIG. 3A) was determined. Furthermore, the collection (7) which was obtained by the subtraction of (4)−(5), and the collection (5) were analyzed in terms of an intermolecular interaction, and the existence of a pathway of molecular signals from (7) to (5) (FIG. 3B) was further determined. The common components and pathway relating to the projection extension by retinoic acid (RA) and Nerve Growth Factor (NGF) are shown in FIG. 4.

Compound	effect on cell growth (SK-BR-3)	DXR sensitivity (T-47D cell)	DXR sensitivity / resistance (MCF7)	expression of tyrosine hydroxylase (SHSY5Y cell)	extension of neuron projection (SHSY5Y cell)
COc1cccc2c1C(=O)c1c(O)c3c(c(O)c1C2=O)C[C@@](O)(C(=O)CO)C[C@@H]3O[C@H]1C[C@H](N)[C@H](O)[C@H](C)O1 [doxorubicin]	growth inhibition	same DXR sensitivity as the SK-BR-3	DXR resistance	–	–
Nerve Growth Factor: Nerve Growth Factor, stimulant triggering neurite outgrowth of SHSY5Y cells	–	–	–	tyrosine hydroxylase was expressed	caused extension of neuron projection
